In data set [1] the target is Cannabinoid receptor 1 (Homo sapiens, UniProt P21554). It counts as cell membranes, Membrane. As to conditions: chem-1. Further: in other assays of this panel Not Active means under 50% inhibition at 10 µM.
The target in data set [2] is Mitogen-activated protein kinase 1 (Homo sapiens, UniProt P28482). Briefly: DRUGMATRIX: Protein Serine/Threonine Kinase, ERK2 enzyme inhibition (substrate: Myelin Basic Protein). Particulars: Not Active = under 50% inhibition at 10 µM. The arrangement: species or system Escherichia coli.
Chain of Mitogen-activated protein kinase 1 (P28482 whole entry): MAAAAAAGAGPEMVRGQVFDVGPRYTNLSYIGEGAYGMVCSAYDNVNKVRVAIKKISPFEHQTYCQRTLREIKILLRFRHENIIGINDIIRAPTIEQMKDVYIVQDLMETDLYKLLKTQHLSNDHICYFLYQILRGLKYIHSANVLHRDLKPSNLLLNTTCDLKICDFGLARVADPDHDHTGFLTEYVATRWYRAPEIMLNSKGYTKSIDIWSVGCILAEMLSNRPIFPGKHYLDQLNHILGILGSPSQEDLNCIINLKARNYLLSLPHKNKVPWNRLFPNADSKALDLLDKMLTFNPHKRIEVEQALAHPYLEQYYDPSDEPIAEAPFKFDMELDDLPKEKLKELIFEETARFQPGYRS
Data set [3] is described as follows: DRUGMATRIX: Glutamate, Kainate radioligand binding (ligand: [3H] Kainic acid). The data set is classed as cell membranes, Rattus norvegicus, Wistar, Brain, Membrane. As to conditions: Not Active = under 50% inhibition at 10 µM.
The target of data set [4] is Cytochrome P450 2E1 (Homo sapiens, UniProt P05181). As to conditions: bti-tn-5b1-4. Further: in other assays of this panel Not Active means under 50% inhibition at 10 µM.
Chain of Cytochrome P450 2E1 (P05181 whole entry): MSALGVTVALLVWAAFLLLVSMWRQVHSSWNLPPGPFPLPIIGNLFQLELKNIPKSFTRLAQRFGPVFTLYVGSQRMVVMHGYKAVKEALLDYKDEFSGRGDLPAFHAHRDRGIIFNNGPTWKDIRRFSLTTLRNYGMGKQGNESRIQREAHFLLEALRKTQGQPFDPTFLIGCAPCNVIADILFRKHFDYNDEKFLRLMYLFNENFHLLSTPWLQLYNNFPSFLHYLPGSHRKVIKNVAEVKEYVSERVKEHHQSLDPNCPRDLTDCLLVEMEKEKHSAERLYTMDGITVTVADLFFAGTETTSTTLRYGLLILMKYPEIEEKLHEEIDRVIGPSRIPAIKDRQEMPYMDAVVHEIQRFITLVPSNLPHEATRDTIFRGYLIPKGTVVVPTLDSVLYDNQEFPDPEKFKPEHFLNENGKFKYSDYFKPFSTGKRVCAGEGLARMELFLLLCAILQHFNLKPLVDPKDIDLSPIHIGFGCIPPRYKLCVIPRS
The target in data set [5] is T1, Calcitonin receptor (Homo sapiens, UniProt P30988). Further: in other assays of this panel Not Active means under 50% inhibition at 10 µM.
T1 sequence (P30988 whole entry): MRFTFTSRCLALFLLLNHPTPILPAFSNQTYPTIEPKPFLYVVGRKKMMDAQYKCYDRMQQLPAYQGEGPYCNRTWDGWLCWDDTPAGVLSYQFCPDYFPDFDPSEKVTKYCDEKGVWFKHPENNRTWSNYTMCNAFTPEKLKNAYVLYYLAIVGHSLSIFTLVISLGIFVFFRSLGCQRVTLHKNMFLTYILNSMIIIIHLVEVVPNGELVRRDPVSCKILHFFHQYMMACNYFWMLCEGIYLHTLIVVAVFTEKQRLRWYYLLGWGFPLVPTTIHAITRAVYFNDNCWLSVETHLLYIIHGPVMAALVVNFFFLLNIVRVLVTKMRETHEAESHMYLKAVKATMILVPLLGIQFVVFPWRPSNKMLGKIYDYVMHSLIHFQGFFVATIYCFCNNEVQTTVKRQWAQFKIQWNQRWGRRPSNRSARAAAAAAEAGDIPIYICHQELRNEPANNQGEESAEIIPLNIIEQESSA
It counts as cell membranes, Membrane. Particulars: t47d.

Data set [6] has as its target Substance-P receptor (Homo sapiens, UniProt P25103). It counts as cell membranes, CHO, Membrane. As to conditions: cho. Further: in other assays of this panel Not Active means under 50% inhibition at 10 µM.
The target of data set [7] is Cytochrome P450 2C9 (Homo sapiens, UniProt P11712). Further: in other assays of this panel Not Active means under 50% inhibition at 10 µM.
Chain of Cytochrome P450 2C9 (P11712 whole entry): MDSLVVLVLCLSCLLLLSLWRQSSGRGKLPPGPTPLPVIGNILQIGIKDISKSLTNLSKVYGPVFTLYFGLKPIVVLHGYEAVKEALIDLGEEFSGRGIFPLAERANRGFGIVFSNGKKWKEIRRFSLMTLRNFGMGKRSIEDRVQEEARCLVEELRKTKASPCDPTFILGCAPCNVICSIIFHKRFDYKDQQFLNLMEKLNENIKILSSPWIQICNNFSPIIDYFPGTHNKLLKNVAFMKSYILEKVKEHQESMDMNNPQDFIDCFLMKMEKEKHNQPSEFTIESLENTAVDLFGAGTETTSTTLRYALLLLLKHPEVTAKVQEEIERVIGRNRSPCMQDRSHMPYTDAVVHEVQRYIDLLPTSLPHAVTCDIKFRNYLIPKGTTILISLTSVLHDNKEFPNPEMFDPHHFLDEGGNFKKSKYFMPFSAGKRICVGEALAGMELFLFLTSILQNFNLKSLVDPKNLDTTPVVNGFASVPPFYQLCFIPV
The target of data set [8] is T2, Androgen receptor (Rattus norvegicus, UniProt P15207). Further: in other assays of this panel Not Active means under 50% inhibition at 10 µM.
T2 sequence (P15207 whole entry): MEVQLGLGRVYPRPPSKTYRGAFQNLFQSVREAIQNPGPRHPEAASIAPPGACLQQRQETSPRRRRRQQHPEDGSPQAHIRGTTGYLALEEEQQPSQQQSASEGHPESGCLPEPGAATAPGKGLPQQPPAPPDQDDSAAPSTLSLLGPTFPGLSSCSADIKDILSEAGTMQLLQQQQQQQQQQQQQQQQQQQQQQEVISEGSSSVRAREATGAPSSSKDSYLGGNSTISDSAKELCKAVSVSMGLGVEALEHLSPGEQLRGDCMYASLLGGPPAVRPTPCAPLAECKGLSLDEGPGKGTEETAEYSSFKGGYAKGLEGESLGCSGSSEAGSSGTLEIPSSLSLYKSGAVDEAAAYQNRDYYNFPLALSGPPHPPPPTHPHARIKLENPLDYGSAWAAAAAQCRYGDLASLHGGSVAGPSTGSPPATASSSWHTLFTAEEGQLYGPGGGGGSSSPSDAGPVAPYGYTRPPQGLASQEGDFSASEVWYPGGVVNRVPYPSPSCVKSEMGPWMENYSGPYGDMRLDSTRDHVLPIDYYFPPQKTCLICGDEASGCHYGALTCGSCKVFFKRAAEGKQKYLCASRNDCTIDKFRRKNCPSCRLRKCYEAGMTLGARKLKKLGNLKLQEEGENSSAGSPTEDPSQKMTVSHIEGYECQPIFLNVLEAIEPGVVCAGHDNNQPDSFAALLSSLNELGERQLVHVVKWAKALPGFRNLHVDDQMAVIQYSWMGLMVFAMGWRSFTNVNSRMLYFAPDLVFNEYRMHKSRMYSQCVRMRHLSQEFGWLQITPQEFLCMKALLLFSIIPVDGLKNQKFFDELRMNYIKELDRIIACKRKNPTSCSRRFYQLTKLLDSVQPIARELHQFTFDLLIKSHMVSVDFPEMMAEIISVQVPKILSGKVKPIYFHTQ

The target in data set [9] is T3, Cytochrome P450 1A2 (Homo sapiens, UniProt P05177). Further: in other assays of this panel Not Active means under 50% inhibition at 10 µM.
T3 sequence (P05177 whole entry): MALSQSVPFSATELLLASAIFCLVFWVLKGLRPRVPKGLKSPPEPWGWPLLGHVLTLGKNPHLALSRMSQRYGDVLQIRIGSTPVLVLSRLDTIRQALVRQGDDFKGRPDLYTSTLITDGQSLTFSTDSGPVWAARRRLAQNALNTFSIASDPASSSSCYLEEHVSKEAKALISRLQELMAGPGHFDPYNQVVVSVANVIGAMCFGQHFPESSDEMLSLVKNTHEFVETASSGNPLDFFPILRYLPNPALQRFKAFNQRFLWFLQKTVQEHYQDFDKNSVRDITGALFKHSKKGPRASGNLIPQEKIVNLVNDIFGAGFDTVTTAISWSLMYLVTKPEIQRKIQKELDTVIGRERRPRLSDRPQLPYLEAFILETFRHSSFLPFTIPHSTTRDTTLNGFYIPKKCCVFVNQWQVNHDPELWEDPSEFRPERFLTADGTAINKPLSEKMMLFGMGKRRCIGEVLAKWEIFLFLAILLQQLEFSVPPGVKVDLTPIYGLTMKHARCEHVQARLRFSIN

Data set [10] concerns the target Cytochrome P450 2C19 (Homo sapiens, UniProt P33261). Further: in other assays of this panel Not Active means under 50% inhibition at 10 µM.
Data set [11] addresses Cytochrome P450 3A4 (Homo sapiens, UniProt P08684).

Structures are written as SMILES. pIC50: −log10 of the molar value.

One may read the pIC50 as −log10 of the IC50, conventionally taken in molar units.

Chain of Substance-P receptor (P25103 whole entry): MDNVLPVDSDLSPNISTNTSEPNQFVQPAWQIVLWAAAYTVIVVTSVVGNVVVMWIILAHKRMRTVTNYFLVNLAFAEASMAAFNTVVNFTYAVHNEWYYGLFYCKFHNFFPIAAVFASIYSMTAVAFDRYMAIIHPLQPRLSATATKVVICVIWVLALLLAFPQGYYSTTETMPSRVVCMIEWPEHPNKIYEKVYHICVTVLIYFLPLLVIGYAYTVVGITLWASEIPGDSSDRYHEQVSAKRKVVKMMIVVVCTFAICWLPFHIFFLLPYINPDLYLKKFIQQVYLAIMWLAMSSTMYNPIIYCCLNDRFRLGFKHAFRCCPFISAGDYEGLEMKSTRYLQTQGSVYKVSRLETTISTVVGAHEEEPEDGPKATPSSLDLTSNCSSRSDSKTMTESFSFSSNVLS
Chain of Cannabinoid receptor 1 (P21554 whole entry): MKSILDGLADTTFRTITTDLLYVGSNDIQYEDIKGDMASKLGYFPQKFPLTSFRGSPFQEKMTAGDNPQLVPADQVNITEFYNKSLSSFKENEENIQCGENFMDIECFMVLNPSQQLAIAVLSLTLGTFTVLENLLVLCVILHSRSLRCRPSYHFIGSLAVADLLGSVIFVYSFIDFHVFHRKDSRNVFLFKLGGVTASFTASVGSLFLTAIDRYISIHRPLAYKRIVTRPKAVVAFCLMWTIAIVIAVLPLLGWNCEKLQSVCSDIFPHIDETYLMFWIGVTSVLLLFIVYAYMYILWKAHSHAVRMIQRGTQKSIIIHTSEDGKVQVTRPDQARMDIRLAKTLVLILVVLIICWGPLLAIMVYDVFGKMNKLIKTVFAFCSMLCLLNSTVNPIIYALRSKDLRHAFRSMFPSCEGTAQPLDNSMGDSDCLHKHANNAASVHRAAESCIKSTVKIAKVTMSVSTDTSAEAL
Chain of Cytochrome P450 2C19 (P33261 whole entry): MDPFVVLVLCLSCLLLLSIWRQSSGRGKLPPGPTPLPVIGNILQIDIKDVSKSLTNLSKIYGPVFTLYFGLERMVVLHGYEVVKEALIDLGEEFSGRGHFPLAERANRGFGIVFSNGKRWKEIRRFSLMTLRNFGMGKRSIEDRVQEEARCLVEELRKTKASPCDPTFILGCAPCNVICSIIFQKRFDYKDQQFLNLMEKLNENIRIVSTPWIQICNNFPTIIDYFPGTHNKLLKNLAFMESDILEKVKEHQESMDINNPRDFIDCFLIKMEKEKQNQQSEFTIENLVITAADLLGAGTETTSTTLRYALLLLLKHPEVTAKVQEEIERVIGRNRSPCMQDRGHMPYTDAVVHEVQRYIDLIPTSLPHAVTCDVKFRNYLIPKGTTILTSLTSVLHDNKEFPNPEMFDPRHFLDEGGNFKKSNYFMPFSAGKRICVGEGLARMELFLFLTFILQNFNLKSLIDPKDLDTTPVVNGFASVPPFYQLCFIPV
Chain of Cytochrome P450 3A4 (P08684 whole entry): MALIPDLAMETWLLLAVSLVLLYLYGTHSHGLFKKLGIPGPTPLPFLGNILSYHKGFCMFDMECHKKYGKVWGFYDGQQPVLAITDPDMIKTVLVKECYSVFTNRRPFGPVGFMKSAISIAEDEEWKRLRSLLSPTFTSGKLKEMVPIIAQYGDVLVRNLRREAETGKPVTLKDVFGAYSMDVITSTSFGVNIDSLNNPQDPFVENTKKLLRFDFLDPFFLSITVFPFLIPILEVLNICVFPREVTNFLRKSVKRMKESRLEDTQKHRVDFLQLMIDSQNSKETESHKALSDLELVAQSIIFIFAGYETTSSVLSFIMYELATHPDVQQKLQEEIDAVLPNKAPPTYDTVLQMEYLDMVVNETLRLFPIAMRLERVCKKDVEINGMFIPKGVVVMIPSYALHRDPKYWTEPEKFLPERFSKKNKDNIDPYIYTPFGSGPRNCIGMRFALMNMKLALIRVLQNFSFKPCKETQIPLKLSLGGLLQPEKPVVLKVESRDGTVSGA

As for `Cc1cc(C(C#N)c2ccc(Cl)cc2)c(Cl)cc1NC(=O)c1cc(I)cc(I)c1O` (stereo unspecified) [CLOSANTEL], the IC50 entry in data set [1], in [3], in data set [4], in data set [5] and in data set [6] was “Not Active” each time. Moreover, the pIC50 in data set [2] (read-out: IC50) is 5.85; in [7], 5.70. In addition, the Ki entry in data set [3] and in [4] was “Not Active” each time.

As to `c1ccc2c(c1)c1cccc3ccc4cccc2c4c31` [BENZO[E]PYRENE], the IC50 result in data set [1], in data set [8], in data set [2], in data set [3], in data set [4] and in [5] was “Not Active” in each case. In [6], the IC50 entry was “Not Active”. In addition, the Ki entry in [3] and in data set [4] was “Not Active” throughout. Moreover, the pIC50 in data set [9] was 7.00.

On to `Cc1ccc2cc3c(ccc4ccccc43)c3c2c1CC3` [3-METHYLCHOLANTHRENE], for which the IC50 result in data set [1], in data set [2], in data set [3], in data set [4], in data set [5] and in data set [6] was “Not Active” throughout. The Ki entry in data set [3] and in [4] was “Not Active” throughout. For the same molecule, the pIC50 in [9] is 6.52.

Regarding `CC(NC(C)(C)C)C(=O)c1cccc(Cl)c1` (stereo unspecified) [BUPROPION], the IC50 entry in [1], in data set [2], in data set [3], in data set [4], in data set [5] and in [6] was “Not Active” in each case. Also, the Ki entry in data set [3] and in data set [4] was “Not Active” throughout. Moreover, the pIC50 in data set [10] was 5.70.

Turning to `CC(C)[C@H]1C(=O)N2CCC[C@H]2[C@]2(O)O[C@](NC(=O)[C@@H]3C=C4c5cccc6[nH]cc(c56)C[C@H]4N(C)C3)(C(C)C)C(=O)N12` [ERGOCORNINE], the IC50 result in [1], in [8], in [2], in [3], in data set [4] and in data set [5] was “Not Active” throughout. For the same molecule, the IC50 entry in data set [6] is “Not Active”. In data set [11], this molecule showed a pIC50 of 6.30. The Ki result in data set [3] and in data set [4] was “Not Active” throughout.

`CC(C)[C@@]1(NC(=O)[C@@H]2C[C@@H]3c4cccc5[nH]cc(c45)C[C@H]3N(C)C2)O[C@@]2(O)[C@@H]3CCCN3C(=O)[C@H](Cc3ccccc3)N2C1=O.CS(=O)(=O)O` [DIHYDROERGOCRISTINE MESYLATE]: the IC50 result in [1], in [2], in [3], in data set [4], in data set [5] and in data set [6] was “Not Active” in each case. For the same molecule, the Ki result in data set [3] and in data set [4] was “Not Active” throughout. Besides, the pIC50 in data set [7] and in [10] was 5.52 each time.

For the molecule `CCCCc1nc(Cl)c(CO)n1Cc1ccc(-c2ccccc2-c2nnn[nH]2)cc1` [LOSARTAN], the IC50 result in [1], in [2], in data set [3], in data set [4], in [5] and in data set [6] was “Not Active” throughout. Moreover, the Ki entry in data set [3] and in [4] was “Not Active” throughout. This molecule gave a pIC50 in data set [7] of 5.54.
